Assay results: patent US7071226B1, “Amino-functionalized 1,2,4-trioxanes useful as antimalarial agents and process for preparation thereof” (Council of Scientific and Industrial Research, priority 2004, dated 2006)
Read-outs that look alike come from different tables or passages of the source.

Test system: multidrug resistant strain of Plasmodium yoelii Nigeriensis
Assay: Antimalarial activity against multidrug resistant P. yoelii in Swiss mice (4-day treatment, observed till day 28)
Type: in vivo
Settings: for inhibition in vivo at 24 mg/kg/day / inhibition in vivo at 48 mg/kg/day / responders at 24 mg/kg/day / responders at 48 mg/kg/day / inhibition in vivo at 96 mg/kg/day / responders at 96 mg/kg/day / inhibition in vivo at 12 mg/kg/day / responders at 12 mg/kg/day: Plasmodium yoelii; for inhibition in vivo at 24 mg/kg/day / inhibition in vivo at 48 mg/kg/day / inhibition in vivo at 96 mg/kg/day / inhibition in vivo at 12 mg/kg/day: 96 h, read-out: % Suppression on Day 4; for responders at 24 mg/kg/day / responders at 48 mg/kg/day / responders at 96 mg/kg/day / responders at 12 mg/kg/day: 672 h
Experimental: The antimalarial activity of the test compounds was evaluated in rodent using multidrug resistant strain of Plasmodium yoelii Nigeriensis in Swiss mice.
Random bred Swiss mice of either sex (20±2 gm) were inoculated intraperitoneally with 1×10^5 P. yoelii (MDR) parasites on day zero. Treatments with test compounds were administered to group of 5 mice each at different dose levels ranging between 12–96 mg/kg/day. Treatment was administered in groundnut oil intramuscularly and orally for 4 consecutive days (day 0–3). Blood smears from experimental mice were observed on day 4 and 7, day 10 and thereafter at regular intervals till day 28 or death of animal. Parasitaemia level on day 4 was compared with vehicle control group and percent suppression of parasitaemia in treated groups was calculated. […] The dose at which no parasitaemia develop during the observation period was reported as curative dose.

[1] = po, read-out: Mice alive on day-28
[2] = Swiss mice, 96 mg/kg/day, im, day 0-3
[3] = Swiss mice, 96 mg/kg/day, im, day 0-3, in groundnut oil
[4] = po, Swiss mice, 96 mg/kg/day, oral, day 0-3, in groundnut oil
[5] = po, Swiss mice, 96 mg/kg/day, oral, day 0-3, read-out: Mice alive on day-28 (converted)
[6] = im, Swiss mice, 96 mg/kg/day, im, day 0-3, in groundnut oil
[7] = im, Swiss mice, 96 mg/kg/day, im, day 0-3, read-out: Mice alive on day-28 (converted)
[8] = po, Swiss mice, 48 mg/kg/day, oral, day 0-3, in groundnut oil
[9] = po, Swiss mice, 48 mg/kg/day, oral, day 0-3, read-out: Mice alive on day-28 (converted)
[10] = Swiss mice, 48 mg/kg/day, oral, day 0-3, 48 mg/kg/day
[11] = po, Swiss mice, oral, day 0-3, in groundnut oil
[12] = po, Swiss mice, 24 mg/kg/day, oral, day 0-3, in groundnut oil
[13] = po, Swiss mice, oral, day 0-3, read-out: Mice alive on day-28
[14] = po, Swiss mice, 24 mg/kg/day, oral, day 0-3, read-out: Mice alive on day-28 (converted)
[15] = Swiss mice, 48 mg/kg/day, oral, day 0-3, in groundnut oil
[16] = Swiss mice, 96 mg/kg/day, oral, day 0-3
[17] = Swiss mice, 96 mg/kg/day, oral, day 0-3, in groundnut oil
[18] = Swiss mice, 24 mg/kg/day, oral, day 0-3, in groundnut oil

| SMILES | inhibition in vivo at 96 mg/kg/day [4] [%] | responders at 96 mg/kg/day [5] [%] | inhibition in vivo at 48 mg/kg/day [8] [%] | responders at 48 mg/kg/day [9] [%] | inhibition in vivo at 24 mg/kg/day [12] [%] | responders at 24 mg/kg/day [14] [%] | also measured |
| --- | --- | --- | --- | --- | --- | --- | --- |
| CCN(CC)CCCC(C)Nc1ccnc2cc(Cl)ccc12 (stereo not drawn) [Chloroquine, reference compound] | – | – | – | – | – | – | inhibition in vivo at 24 mg/kg/day (po): 100%; inhibition in vivo at 48 mg/kg/day (po): 100%; responders at 24 mg/kg/day [1]: 0%; responders at 48 mg/kg/day [1]: 40% |
| C=C(c1ccccc1)C1COC2(CCC(=O)CC2)OO1 (stereo not drawn) [Compound 3a, 3-(1-Phenyl-Vinyl)-1,2,5-Trioxaspiro[5.5]undec-9-one] | – | – | – | – | – | – | Mice alive on day-28 [2]: 0/5; % Suppression on Day 4 [3]: 99% |
| C=C(c1ccc(-c2ccccc2)cc1)C1COC2(CCC(=O)CC2)OO1 (stereo not drawn) [Compound 3b, 3-(1-Biphenyl-4yl-Vinyl)-1,2,5-Trioxaspiro[5.5]undec-9-one] | – | – | – | – | – | – | Mice alive on day-28 [2]: 1/5; % Suppression on Day 4 [3]: 100% |
| C=C(c1ccc(Cl)cc1)C1COC2(CCC(=O)CC2)OO1 (stereo not drawn) [Compound 3c, 3-[1-(4-Chloro-Phenyl)-Vinyl]-1,2,5-Trioxa-Spiro[5.5]undecan-9-one] | 100 | 0 | – | – | – | – | – |
| C=C(c1ccccc1)C1COC2(CCC(Nc3ccc(Cl)cc3)CC2)OO1 (stereo not drawn) [Compound 4aa, (4-Chloro-Phenyl)-[3-(1-Phenyl-Vinyl)-1,2,5-Trioxa-Spiro[5.5]undec-9-yl]-Amine] | 100 | 100 | 100 | 60 | – | – | inhibition in vivo at 96 mg/kg/day [6]: 71%; responders at 96 mg/kg/day [7]: 40% |
| C=C(c1ccccc1)C1COC2(CCC(Nc3ccccc3-c3ccccc3)CC2)OO1 (stereo not drawn) [Compound 4ab, Biphenyl-2-yl-[3-(1-Phenyl-Vinyl)-1,2,5-Trioxa-Spiro[5.5]undec-9-yl]Amine] | 100 | 100 | 100 | – | – | – | Mice alive on day-28 [10]: 0/5 |
| C=C(c1ccccc1)C1COC2(CCC(Nc3ccccc3-c3ccccc3)CC2)OO1 (stereo not drawn) [Compound 4ac, Biphenyl-2-yl-[3-(1-Phenyl-Vinyl)-1,2,5-Trioxa-Spiro[5.5]undec-9-yl]Amine] | – | – | – | – | 100 | 40 | inhibition in vivo at 96 mg/kg/day [6]: 74%; responders at 96 mg/kg/day [7]: 0%; inhibition in vivo at 12 mg/kg/day [11]: 100%; responders at 12 mg/kg/day [13]: 0%; % Suppression on Day 4 [15]: 100%; Mice alive on day-28 [10]: 5/5; Mice alive on day-28 [16]: 5/5; % Suppression on Day 4 [17]: 100% |
| C=C(c1ccccc1)C1COC2(CCC(Nc3ccc(-c4ccccc4)cc3)CC2)OO1 (stereo not drawn) [Compound 4ad, Biphenyl-4-yl-[3-(1-Phenyl-Vinyl)-1,2,5-Trioxa-Spiro[5.5]undec-9-yl]Amine] | 100 | 100 | 100 | 100 | 100 | 60 | inhibition in vivo at 12 mg/kg/day [11]: 99%; responders at 12 mg/kg/day [13]: 0% |
| C=C(c1ccccc1)C1COC2(CCC(Nc3ccc4c(c3)-c3ccccc3C4)CC2)OO1 (stereo not drawn) [Compound 4ae] | – | – | – | – | – | – | Mice alive on day-28 [16]: 5/5; % Suppression on Day 4 [17]: 100% |
| C=C(c1ccccc1)C1COC2(CCC(Nc3cccc(C(F)(F)F)c3)CC2)OO1 (stereo not drawn) [Compound 4ah, [3-(1-Phenyl-Vinyl)-1,2,5-Trioxa-Spiro[5.5]undec-9-yl]-(3-Trifluoromethyl-Phenyl)-Amine] | 100 | 100 | 100 | 100 | 100 | 20 | inhibition in vivo at 96 mg/kg/day [6]: 83%; responders at 96 mg/kg/day [7]: 0% |
| C=C(c1ccc(-c2ccccc2)cc1)C1COC2(CCC(Nc3ccc(Cl)cc3)CC2)OO1 (stereo not drawn) [Compound 4ba, [3-(1-Biphenyl-4-yl-Vinyl)-1,2,5-Trioxa-Spiro[5.5]undec-9-yl]-(4-Chloro-Phenyl)-Amine] | 100 | 100 | – | – | – | – | – |
| C=C(c1ccc(-c2ccccc2)cc1)C1COC2(CCC(Nc3ccccc3C(F)(F)F)CC2)OO1 (stereo not drawn) [Compound 4bg, [3-(1-Biphenyl-4-yl-vinyl)-1,2,5-trioxa-spiro[5.5]undec-9-yl]-(2-trifluoromethyl-phenyl)-amine] | 100 | 40 | – | – | – | – | – |
| C=C(c1ccc(Cl)cc1)C1COC2(CCC(Nc3ccc(C)cc3)CC2)OO1 (stereo not drawn) [Compound 4cb, {3-[1-(4-Chloro-Phenyl)-Vinyl]-1,2,5-Trioxa-Spiro[5.5]undec-9-yl}-p-Tolyl-Amine] | – | – | 100 | 100 | – | – | – |
| C=C(c1ccc(Cl)cc1)C1COC2(CCC(Nc3ccc(Cl)cc3)CC2)OO1 (stereo not drawn) [Compound 4cc] | – | – | – | – | – | – | Mice alive on day-28 (Swiss mice, 24 mg/kg/day, oral, day 0-3): 4/5; % Suppression on Day 4 [18]: 100%; Mice alive on day-28 (Swiss mice, 48 mg/kg/day, oral, day 0-3): 5/5; % Suppression on Day 4 [15]: 100% |
| C=C(c1ccc(Cl)cc1)C1COC2(CCC(Nc3cc(Cl)cc(Cl)c3)CC2)OO1 (stereo not drawn) [Compound 4ce, {3-[1-(4-Chloro-phenyl)-vinyl]-1,2,5-trioxa-spiro[5.5]undec-9-yl}-(3,5-dichloro-phenyl)-amine] | – | – | 100 | – | 100 | 40 | Mice alive on day-28 [10]: 4/5 |
| C=C(c1ccc(Cl)cc1)C1COC2(CCC(Nc3cc(Cl)cc(Cl)c3)CC2)OO1 (stereo not drawn) [Compound 4cf, {3-[1-(4-Chloro-phenyl)-vinyl]-1,2,5-trioxa-spiro[5.5]undec-9-yl}-(3,5-dichloro-phenyl)-amine] | – | – | – | – | – | – | % Suppression on Day 4 [18]: 100%; Mice alive on day-28 (Swiss mice, 24 mg/kg/day, oral, day 0-3, 24 mg/kg/day): 1/5; % Suppression on Day 4 [15]: 100%; Mice alive on day-28 [10]: 2/5 |
| C=C(c1ccc(Cl)cc1)C1COC2(CCC(Nc3cccc4ccccc34)CC2)OO1 (stereo not drawn) [Compound 4ch, {3-[1-(4-Chloro-phenyl)-vinyl]-1,2,5-trioxa-spiro[5.5]undec-9-yl}-naphthalen-1-yl-amine] | 100 | 40 | – | – | – | – | – |
| C=C(c1ccc(Cl)cc1)C1COC2(CCC(Nc3ccccc3-c3ccccc3)CC2)OO1 (stereo not drawn) [Compound 4cj, Biphenyl-2-yl-{3-[1-(4-Chloro-Phenyl)-Vinyl]-1,2,5-Trioxa-Spiro[5.5]undec-9-yl}-Amine] | – | – | 100 | 100 | 100 | 40 | – |
| C=C(c1ccc(Cl)cc1)C1COC2(CCC(Nc3ccc(-c4ccccc4)cc3)CC2)OO1 (stereo not drawn) [Compound 4ck, Biphenyl-4-yl-{3-[1-(4-Chloro-Phenyl)-Vinyl]-1,2,5-Trioxa-Spiro[5.5]undec-9-yl}-Amine] | 100 | 40 | – | – | – | – | – |
| C=C(c1ccc(Cl)cc1)C1COC2(CCC(Nc3cccc(C(F)(F)F)c3)CC2)OO1 (stereo not drawn) [Compound 4co, {3-[1-(4-Chloro-phenyl)-vinyl]-1,2,5-trioxa-spiro[5.5]undec-9-yl}-(3-trifluoromethyl-phenyl)-amine] | 100 | 100 | 100 | 100 | 100 | 60 | inhibition in vivo at 96 mg/kg/day [6]: 73%; responders at 96 mg/kg/day [7]: 0% |
| C=C(c1ccc(OC)cc1)C1COC2(CCC(Nc3ccccc3)CC2)OO1 (stereo not drawn) [Compound 4da, {3-[1-(4-Methoxy-Phenyl)-Vinyl]-1,2,5-Trioxa-Spiro[5.5]undec-9-yl}-Phenyl-Amine] | 100 | 0 | – | – | – | – | inhibition in vivo at 96 mg/kg/day [6]: 81%; responders at 96 mg/kg/day [7]: 0% |
| C=C(c1ccc(OC)cc1)C1COC2(CCC(Nc3ccc(Cl)cc3)CC2)OO1 (stereo not drawn) [Compound 4dc, (4-Chloro-Phenyl)-{3-[1-(4-Methoxy-Phenyl)-Vinyl]-1,2,5-Trioxa-Spiro[5.5]undec-9-yl}-Amine] | 100 | 100 | 100 | 100 | 100 | 80 | inhibition in vivo at 96 mg/kg/day [6]: 100%; responders at 96 mg/kg/day [7]: 80% |
| C=C(c1ccc(OC)cc1)C1COC2(CCC(Nc3cc(Cl)cc(Cl)c3)CC2)OO1 (stereo not drawn) [Compound 4dd, (3,5-Dichloro-Phenyl)-{3-[1-(4-Methoxy-Phenyl)-Vinyl]-1,2,5-Trioxa-Spiro[5.5]undec-9-yl}-Amine] | 100 | 80 | – | – | – | – | – |
